Results: patent US12029716B2, “Derivatives of korormicin useful as antibiotics” (Viotika Life Sciences Inc., priority 2015, dated 2024)
Values after ≈ are worked out from the molar mass of the structure shown. Values joined by “and” are separate entries in the source; they are usually repeats but may differ in a detail not shown here. Equal entries are not always repeated. “Also recorded” adds a separate entry of the source. Where two headings read alike, the source gives them in different places.

Key:
[1] = molecular target: Na^+-NQR; conditions: cited from earlier work
[2] = molecular target: T1, Na^+-NQR (Vibrio cholerae serotype O1, UniProt Q9KPS2); test: Na+-NQR activity (dNADH oxidation) in sub-bacterial V. cholerae vesicles; format: biochemical
T1 construct: being placed in its native membrane; endogenous in cells; sub-bacterial membrane vesicles made by French press

[3] = system: Chlamydia trachomatis; test: C. trachomatis infection of HeLa cells (chlamydial inclusions, immunocytochemistry); format: cell-based; conditions: for MCC2, Minimal Chlamydicidal Concentration: after 2 passages with treatment
Procedure: Chlamydia trachomatis (C. trachomatis) propagation and treatment were carried out as follows. C. trachomatis was propagated in HeLa cells. The titer of C. trachomatis was determined in cyclohexamide-treated HeLa cells, and concentrations used were expressed as inclusion forming units (IFU) per mL.
Assessment of the level of infection was determined as follows. HeLa cells were seeded on glass coverslips in 24-well plates at 3×10^4 cells/well and inoculated with C. trachomatis and then treated with antibiotic (or other compounds of interest). After 48 hours, the infected cells were fixed with 100% methanol and then incubated with anti-Chlamydia monoclonal antibody. Inclusion bodies were visualized by staining with FITC-conjugated secondary antibody and DAPI as counterstaining. The samples were examined by a fluorescence microscopy. Number of inclusions was calculated per 100 cells.
Assessment of antichlamydial activity of Korormicin (Scheme shown in FIG. 1) and PEG-2 (Scheme shown in FIG. 2) were performed as follows. Cells were infected with C. trachomatis and treated with different concentrations of antibiotic of choice. After 48 h of C. trachomatis was collected (P1) and used to infect fresh cells. Subsequent collections of C. trachomatis were used to obtain P2, P3, P4 and P5 stocks of C. trachomatis. Dilution of C. trachomatis used to infect cells after treatment with PEG-2 had to be minimized in order to visualize inclusions. Last passage collection of C. trachomatis (P5) of Korormicin treatment and all collected of passages of C. trachomatis treated with PEG-2 were used to establish infectivity of treated Chlamydia (Scheme shown in FIG. 3).
For MIC50 (Minimal Concentration of the antibiotic that inhibits formation of chlamydial inclusions on 50%) determination HeLa cells were grown in 24-well or 96 well plates overnight prior to chlamydial inoculation. Elementary bodies were applied to the cells in small volume of SPG (0.22 M sucrose, 8.6 mM Na2HPO4, 3.8 mM KH2PO4, 5 mM glutamic acid, 0.2 μm-filtered, pH 7.4) and after 2 hours of incubation unattached elementary bodies were removed and infected cells were treated with different concentration of antibiotics in Dulbecco's modified Eagle's medium (DMEM, Invitrogen) with 5% fetal bovine serum (FBS, Invitrogen) in the presence of cycloheximide (1.0 μg/ml). After 42 h inclusions were visualized by immunocytochemistry.
To determent chlamydicidal effect of Korormicin (Scheme 1) and PEG-2 (Scheme 2) Hela cells were infected with C. trachomatis and treated with different concentrations of antibiotics. After 48 h of C. trachomatis was collected (P1) and used to infect fresh cells. Subsequent collections of C. trachomatis were used to obtain P2, P3, P4 and P5 stocks of C. trachomatis. Dilution of C. trachomatis used to infect cells after treatment with PEG-2 had to be minimized in order to visualize inclusions. (See Scheme 2 below). Last passage collection of C. trachomatis (P5) of Korormicin treatment and all collected of passages of C. trachomatis treated with PEG-2 were used to establish infectivity of treated C. trachomatis. Minimal chlamydicidal concentration (MCC2) for Korormicin, PEG-2 and PEG-2S was calculated after 2 passages of infection with treatment and reflect inhibition of infection for more than 90%. In all experiments inclusions were visualized by immunocytochemistry.
Cells were seeded on glass coverslips in 24-well plates (2-4×10^4 cells/well) or on glass-bottom 96 well plates (10^4 cells/well), and after overnight inoculated with C. trachomatis. After 42 hours, the infected cells were fixed with 90% acetone (or 100% methanol in case of 96 well plates) and then incubated with anti-Chlamydia antibody (Thermo Fisher Scientific). Alexa Fluor 488-conjugated anti-rabbit IgG (Molecular Probes) was used as secondary antibody. DAPI staining solution (300 nM) was added to the coverslips to identify nuclei. […]

[4] = system: primary Vascular Smooth Muscle cells; test: Cell toxicity / proliferation assay, primary vascular smooth muscle cells; format: cell-based, human; conditions: for toxicity to primary cells (in words): primary Vascular Smooth Muscle cells
Procedure: (§1) Cell Toxicity Assay was performed as follows. HeLa, HEK293 and primary VSM cells were seeded at 5×10^3 cells/well in 96-well plates and incubated with Korormicin, PEG-2 or homoserine lactones in DMEM containing 1% fetal bovine serum (FBS; Invitrogen Corp.). After 48 hours, the number of living cells was determined by a colorimetric enzyme assay, based on a cytoplasmic enzyme activity present in viable cells.
Cells were seeded at 5×10^3 cells/well in 96-well plates and incubated with C. trachomatis in DMEM containing 1% fetal bovine serum (FBS; Invitrogen Corp.). After 48 hours, the number of living cells was determined by a colorimetric enzyme assay (CellTiter 96 Cell Proliferation Assay; Promega Corporation, Madison, WI) based on a cytoplasmic enzyme activity present in viable cells. (Cory et al. Use of an aqueous soluble tetrazolium/formazan assay for cell growth assays in culture. Cancer Commun. 1991; 3:207-212). The absorbance of a formazan product in tissue culture media was measured at 500 nm using a microplate reader.

[5] = system: HeLa cell line; test: Cell toxicity assay, HeLa cells; format: cell-based, human
Procedure: as §1

[6] = system: C. difficile ATCC 700057; test: Susceptibility test of Clostridium difficile growth; format: cell-based; conditions: 0.5 μM-50 μM
Procedure: Evaluation of a PEG-2S against Clostridium difficile (C. difficile ATCC 700057) was performed by Drop method on pre-reduced BAK plates according to Performance Standards for Antimicrobial Susceptibility Testing (Methods for Antimicrobial Susceptibility Testing of Anaerobic Bacteria; Approved Standard—Eighth Edition; Volume 32 Number 5, 2012).

[7] = system: HEK293 cells infected with C. trachomatis; test: Intracellular pH in HEK293 cells infected with C. trachomatis; format: cell-based, human
Procedure: (§2) pHrodo™ Green AM and CoroNa Green Sodium Indicator (both Molecular Probes, Invitrogen) were used to measure intracellular pH (pHi) and intracellular sodium (Na^+i) concentration. HEK293 cells were seeded on 24 well plates and infected with C. trachomatis after overnight incubation in DMEM with 5% FBS. After 2 hours of incubation with C. trachomatis cells were treated with different concentrations of PEG-2S and subjected to pHi and Na^+i measurement at different time points according to manufacturer's protocols. In all assessments calibration curves were performed prior to the experiments. Fluorescent inverted microscope (TE-2000s Nikon) was used to obtain images and mean intensity was quantified using NIS Elements imaging software (Nikon, Mississauga, ON).

[8] = system: Lactococcus lactis; test: Growth of free-living bacteria in liquid medium (OD600); conditions: 1.0 to 50 μM
[9] = system: HEK293 cells infected with C. trachomatis; test: Intracellular sodium in HEK293 cells infected with C. trachomatis; format: cell-based, human; conditions: 1 and 2.5 μM (low μM)
Procedure: as §2

[10] = system: Enterococcus faecalis; test: Growth of free-living bacteria in liquid medium (OD600); conditions: 1.0 to 50 μM
[11] = physchem; format: physicochemical; conditions: organic solvent or mixture
[12] = system: Escherichia coli; test: Growth of free-living bacteria in liquid medium (OD600); conditions: 1.0 to 50 μM
[13] = Chlamydia trachomatis, HeLa, cell culture experimental model, read-out: IC50(Chl), half-maximal inhibition of the proliferation of Chlamydia trachomatis

CCCCCCCc1cc(O)c2ccccc2[n+]1[O-] [HQNO, 2-n-heptyl-4-hydroxyquinoline N-oxide]
Ki ([1]; read-out: Ki for Na+-NQR): 300 nM | IC50 [2]: 130 nM

CCCCCCCC[C@H]1O[C@H]1C/C=C/C=C\[C@H](O)CC(=O)NC1=C[C@](C)(CC)OC1=O [Korormicin, (3R,4Z,6E)-N-[(5S)-5-Ethyl-5-methyl-2-oxo-2,5-dihydro-3-furanyl]-3-hydroxy-8-[(2S,3R)-3-octyl-2-oxiranyl]-4,6-octadienamide]
efficacy against C. trachomatis infection (in words) [3]: effective | number of inclusions, of control ([3]; 5 consecutive treatments, 15 μM): 4.8% | IC50 ([3]; Chlamydia trachomatis, HeLa, read-out: MIC501, Minimal Inhibitory Concentration after the treatment, first treatment): 8.28 µg/mL | IC50 ([3]; Chlamydia trachomatis, HeLa, read-out: MIC501, Minimal Inhibitory Concentration after the treatment, first treatment, 50% inhibition of inclusion formation): 18000 nM | IC50 ([3]; Chlamydia trachomatis, HeLa, read-out: MIC502, Minimal Inhibitory Concentration after the second treatment, second treatment): 10 µM and 4.6 µg/mL | concentration effective against C. trachomatis ([3]; cell culture models): 10 to 20 µM | number of chlamydial inclusions, of control ([3]; five consecutive treatments, 20 μM): less than 2% | Ki ([1]; isolated Na+-NQR, listed as korormicin, read-out: inhibitor constant (Ki) of quinone reduction by Na+-NQR): ~0.08 nM | Ki ([1]; isolated Na+-NQR, read-out: inhibitor constant (Ki) of quinone reduction by Na+-NQR): 0.082 nM | Ki ([1]; preparations of isolated enzyme, read-out: Ki): ~0.08 nM | lowering of the cell titer ([4]; VSMC proliferation, 5 to 15 μM): ~10% | toxicity to primary cells (in words) [4]: toxic

CCCCCCCCCC(=O)CC(=O)N[C@H]1CCOC1=O [N-3-oxo-dodecanoyl-L-Homoserine lactone]
Cytotoxicity on HeLa cell line ([5]; 12.5 μM): yes | Cytotoxicity on HeLa cell line ([5]; 25 μM): yes | Cytotoxicity on HeLa cell line ([5]; 50 μM): yes | Cytotoxicity on HeLa cell line ([5]; 100 μM): yes | toxicity to human cells (in words) ([5]; HeLa): highly toxic

CCCC(=O)N[C@H]1CCOC1=O [N-butyryl-L-Homoserine lactone]
Anti-Chlamydial effect ([3]; 12.5 μM): no | Anti-Chlamydial effect ([3]; 25 μM): no | Anti-Chlamydial effect ([3]; 50 μM): No | Anti-Chlamydial effect ([3]; 100 μM): no | Cytotoxicity on HeLa cell line ([5]; 12.5 μM): no | Cytotoxicity on HeLa cell line ([5]; 25 μM): no | Cytotoxicity on HeLa cell line ([5]; 50 μM): no | Cytotoxicity on HeLa cell line ([5]; 100 μM): no

CCCCCCCCCC(=O)N[C@H]1CCOC1=O [N-decanoyl-L-Homoserine lactone]
Anti-Chlamydial effect ([3]; 12.5 μM): no | Anti-Chlamydial effect ([3]; 25 μM): no | Anti-Chlamydial effect ([3]; 50 μM): no | Anti-Chlamydial effect ([3]; 100 μM): no | Cytotoxicity on HeLa cell line ([5]; 12.5 μM): no | Cytotoxicity on HeLa cell line ([5]; 25 μM): no | Cytotoxicity on HeLa cell line ([5]; 50 μM): no | Cytotoxicity on HeLa cell line ([5]; 100 μM): no

CCCCCC(=O)N[C@H]1CCOC1=O [N-hexanoyl-L-Homoserine lactone]
Anti-Chlamydial effect ([3]; 12.5 μM): no | Anti-Chlamydial effect ([3]; 25 μM): no | Anti-Chlamydial effect ([3]; 50 μM): No | Anti-Chlamydial effect ([3]; 100 μM): no | Cytotoxicity on HeLa cell line ([5]; 12.5 μM): no | Cytotoxicity on HeLa cell line ([5]; 25 μM): no | Cytotoxicity on HeLa cell line ([5]; 50 μM): no | Cytotoxicity on HeLa cell line ([5]; 100 μM): no

CCCCCCC/C=C/C=C\[C@H](O)CC(=O)NC1=C[C@](C)(CC)OC1=O [PEG-2S]
IC50 ([3]; Chlamydia trachomatis, HeLa, read-out: IC50(Chl), half-maximal inhibition of the proliferation of Chlamydia trachomatis, cell culture experimental model): 700 nM | MCC2, Minimal Chlamydicidal Concentration [3]: 0.36 µg/mL | MCC2, Minimal Chlamydicidal Concentration ([3]; inhibition of infection for more than 90%): 1.0 µM | MIC501, Minimal Inhibitory Concentration after the treatment ([3]; first treatment): 0.25 µg/mL (≈ 0.688 µM) | IC50 ([3]; read-out: MIC502, Minimal Inhibitory Concentration after the second treatment, second treatment): 250 nM | MIC502, Minimal Inhibitory Concentration after the second treatment ([3]; second treatment): 0.09 µg/mL (≈ 0.248 µM) | effect on growth [6]: does not affect the growth | internal pH of infected cells ([7]; 1.0 μM, within first 5 hours of infection): ~7.6 | effect on chlamydia-induced acidification ([7]; 2.5 μM): prevented the chlamydia-induced acidification completely | effect on changes of cytoplasmic pH ([7]; 1 and 2.5 μM): prevents changes of cytoplasmic pH | effect on growth [8]: did not affect the growth | effect on intracellular sodium accumulation / changes of [Na+] [9]: sensitive; also recorded: prevents changes | effect on growth [10]: did not affect the growth | toxicity to primary cells (in words) [4]: low cytotoxicity | solubility [11]: < 25 mM | IC50 [2]: 1.76 nM | effect on growth [12]: did not affect the growth

CC[C@@]1(C)C=C(NC(=O)C[C@@H](O)/C=C\C=C\CCCCCCN(C)C(=O)OC(C)(C)C)C(=O)O1 [PEG-6(Boc)]
IC50 [3, 13]: 960 nM | solubility [11]: > 50 mM

CC[C@@]1(C)C=C(NC(=O)C[C@@H](O)/C=C\I)C(=O)O1 [PEG-10]
IC50 [3, 13]: 670 nM | solubility [11]: > 50 mM

CCCCCCCCCCC[C@H](O)CC(=O)NC1=C[C@](C)(CC)OC1=O [PEG-11]
IC50 [3, 13]: 630 nM | solubility [11]: > 50 mM

CCCCCCC/C=C/C=C\CCC(=O)NC1=C[C@](C)(CC)OC1=O [PEG-14]
IC50 [3, 13]: 1200 nM | solubility [11]: > 50 mM
